{
  "source": "paper PMC10406726",
  "about": "“Development, scrutiny, and modulation of transient reporter gene assays of the xenobiotic metabolism pathway in zebrafish hepatocytes” (Cell Biology and Toxicology, 2021)",
  "key": {"[1]": {"experiment": "Optical inspection under the microscope for crystalized aggregates in exposure medium", "format": "physicochemical", "settings": "BNF in exposure medium, ZFL cell culture", "source_text": "TOX21_ARE_BLA_agonist_ratio NFE2L2 nuclear factor, 0.985 DNA binding\nATG_ERE_CIS_up ESR1 estrogen receptor 1 1.06 nuclear receptor\nTOX21_ARE_BLA_Agonist_ch2 – – 1.22 channel 2\nATG_PXRE_CIS_up NR1I2 nuclear receptor 2.24 nuclear receptor\nATG_ERa_TRANS_up ESR1 estrogen receptor 1 2.86 nuclear receptor\nTOX21_AR_LUC_MDAKB2_Ago AR androgen receptor 3.69 nuclear receptor\nATG_VDRE_CIS_up VDR vitamin D (1,25- 4.28 nuclear receptor\nTOX21_AhR_LUC_Agonist AHR aryl hydrocarbon 4.44 DNA binding\nTOX21_ERa_LUC_VM7_Agonist ESR1 estrogen receptor 1 5.15 nuclear receptor\nTOX21_AR_LUC_MDAKB2_Ago AR androgen receptor 5.43 nuclear receptor\nTOX21_CAR_Agonist NR1I3 nuclear receptor 6.07 nuclear receptor\nATG_PXR_TRANS_up NR1I2 nuclear receptor 6.58 nuclear receptor\n132 To undermine the “maisonette” squelching hypothesis, Comptox data regarding the induction of cellular\n133 stress response pathways were backed up by empirical data in ZFL cell lines. Therefore, ZFL cells were\n134 transiently co-transfected with the Nrf2-responsive reporter vector pGL4.37 and the normalization\n135 vector pRL-CMV, as described in (Lungu-Mitea and Lundqvist 2020). Experimental design, data\n136 handling, and statistical evaluation were identical to procedures described in the main manuscript. The\n137 transcription factor Nrf2 is a central regulator of the oxidative stress response pathways […]"}, "[2]": {"target": "ATAD5 (ATPase family, AAA domain containing 5)", "parameters": "method as in ToxCast database, CompTox dashboard", "settings": "TOX21_ELG1_LUC_Agonist; ref ToxCast database, CompTox dashboard; cited from earlier work"}, "[3]": {"target": "ESRRA (estrogen-related receptor alpha)", "parameters": "method as in ToxCast database, CompTox dashboard", "settings": "TOX21_ERR_Agonist; ref ToxCast database, CompTox dashboard; cited from earlier work"}, "[4]": {"tested_on": "AHR (aryl hydrocarbon receptor)", "parameters": "method as in ToxCast database, CompTox dashboard", "settings": "ATG_Ahr_CIS_up; ref ToxCast database, CompTox dashboard; cited from earlier work"}, "HDAC (hydrolase)": {"target": "HDAC (hydrolase)", "parameters": "method as in ToxCast database, CompTox dashboard", "settings": "TOX21_HDAC_Inhibition; ref ToxCast database, CompTox dashboard; cited from earlier work"}, "[5]": {"tested_on": "NFE2L2 (nuclear factor, erythroid 2-like 2)", "parameters": "method as in ToxCast database, CompTox dashboard", "settings": "TOX21_ARE_BLA_agonist_ratio; ref ToxCast database, CompTox dashboard; cited from earlier work"}, "[6]": {"tested_on": "NR1I2 (nuclear receptor subfamily 1, group I, member 2)", "parameters": "method as in ToxCast database, CompTox dashboard", "settings": "ATG_PXRE_CIS_up; ref ToxCast database, CompTox dashboard; cited from earlier work"}, "HEK293 (cell cycle)": {"tested_on": "HEK293 (cell cycle)", "parameters": "method as in ToxCast database, CompTox dashboard", "settings": "TOX21_RT_HEK293_FLO_40hr_viability; ref ToxCast database, CompTox dashboard; cited from earlier work"}, "AR (androgen receptor)": {"target": "AR (androgen receptor)", "parameters": "method as in ToxCast database, CompTox dashboard", "settings": "TOX21_AR_LUC_MDAKB2_Agonist; ref ToxCast database, CompTox dashboard; cited from earlier work"}},
  "data": [
    {"smiles": "O=c1cc(-c2ccccc2)oc2ccc3ccccc3c12", "note": "[BNF, β-naphthoflavone]", "values": [
      {"measurement": "concentration above which crystalized aggregates were encountered", "setting": "[1]", "value": "[…]"},
      {"measurement": "AC50", "setting": "[2]", "value": 47.4, "unit": "nM"},
      {"measurement": "AC50", "setting": "[3]", "value": 67.2, "unit": "nM"},
      {"measurement": "AC50", "setting": "[4]", "value": "[…]"},
      {"measurement": "AC50", "setting": "HDAC (hydrolase)", "value": 513, "unit": "nM"},
      {"measurement": "AC50", "setting": "[5]", "value": 985, "unit": "nM"},
      {"measurement": "AC50", "setting": "[6]", "value": 2240, "unit": "nM"},
      {"measurement": "AC50", "setting": "HEK293 (cell cycle)", "value": 5.05, "unit": "µM"},
      {"measurement": "AC50", "setting": "AR (androgen receptor)", "value": 5.43, "unit": "µM"}
    ]}
  ]
}
